# Measurements: US11970713B2, “Method for long-term ex vivo maintenance or expansion of human erythroblast, human megakaryocyte-erythroid progenitor, or human common myeloid progenitor cell and application thereof” (OCGENE THERAPEUTICS CORPORATION, priority 2020, dated 2024)
# “Also recorded” adds a separate entry of the source.
# Tested on: human umbilical cord blood mononuclear cells
# Experiment: Cell expansion in E6 medium with different tankyrase inhibitors, removal of SB590885 or CHIR99021, or different XAV939 concentrations (Example 6)
# Assay type: cell-based
# Conditions: XAV939 between 0.2 μM and 2 μM in E6 + 3i
# Protocol: 2×10^6 of human umbilical cord blood mononuclear cells were cultured in E6 medium supplemented with 3i composition (the same as that in EXAMPLE 1) as a control group; and 2×10^6 of human umbilical cord blood mononuclear cells were cultured in E6 medium supplemented with 3i+X composition (the same as that in EXAMPLE 1) as experimental groups, wherein X presented the tankyrase inhibitor, and different tankyrase inhibitors were selected from JW55, RK-287107, WIKI4, XAV939 or TC-E5001 in different experimental groups.
# Additionally, the inventors investigated effect of removal of SB590885, removal of CHIR99021, or experience of different concentrations of XAV939 on cell expansion. The cell counting results were shown in Tables 2, 3, and 4, respectively.
smiles,measurement,value
Oc1nc(-c2ccc(C(F)(F)F)cc2)nc2c1CSCC2 [XAV939],Effect of XAV939 concentration on expanded cell numbers,about the same; also recorded: can promote cell expansion
